Measured values published in US12569495B2, “Inhibitors of porcine reproductive and respiratory syndrome virus” (UNIVERSITY OF CONNECTICUT, priority 2020, dated 2026).
Values joined by “and” are separate entries in the source; they are usually repeats but may differ in a detail not shown here. Equal values may be shown once. “Also recorded” adds a separate entry of the source.

Tests used:
[1] = target: T1, PPI between PRRSV GP4 glycoprotein and CD163-SRCR5 domain (Sus scrofa, UniProt Q2VL90); assay: BiFC assay between SRCR5-VN and GP4-VC proteins; assay type: cell-based, porcine CD163; PRRSV; settings: HEK293T cells; DMSO as Ctrl
T1 construct: The amplified cDNA fragments of SRCR2 or SRCR5 were subcloned into the pBiFC-VN155(I152L) vector; Myc tag (from vector backbone pMyc-CMV); expressed in transfected cells; host or cells: HEK293T
T1 sequence (Q2VL90 477-577): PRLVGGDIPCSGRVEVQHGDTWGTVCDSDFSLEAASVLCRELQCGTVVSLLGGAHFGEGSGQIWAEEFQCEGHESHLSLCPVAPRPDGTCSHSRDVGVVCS
Excerpt: The N-terminus and C-terminus of the truncated Venus-I152L were inserted into vector backbone pMyc-CMV and pCMV-HA, constituting commercial plasmids pBiFC-VN155(I152L) and pBiFC-VC155, respectively (Addgene, Watertown, MA, USA). See Kodama and Hu, Biotechniques 49:793-805 (2010). cDNA fragments for the scavenger receptor cysteine-rich domain 2 (SRCR2) and SRCR5 of porcine CD163 receptor, and for PRRSV glycoproteins GP2a and GP4 were amplified by RT-PCR. The amplified cDNA fragments of SRCR2 or SRCR5 were subcloned into the pBiFC-VN155(I152L) vector digested with EcoRI/BglII. For constructions of GP2a and GP4 fusion proteins, cDNA fragments encoding GP2a or GP4 were subcloned into the pBiFC-VC155 vector digested with EcoRI/BglII. […]
HEK293T cells cultured in 12-well plates were transfected with appropriate plasmids for each BiFC assay using FuGENE® 6 (Promega, Madison, WI, USA). […] Fluorescence images of treated cells at 24 h after plasmid transfection were captured using an inverted Nikon fluorescence microscope. Fluorescence intensity of treated cells was measured by ImageJ. […]
The BiFC assays was tested to determine whether it could identify small molecules with potential to block the protein-protein interactions between CD163 and PRRSV. […] Twenty-four hours later, images were taken under a fluorescence microscope and the fluorescence quantified. […]

Rat acute toxicity study = assay type: in vivo, Sprague Dawley laboratory male rats
Experimental: The study was conducted as: • 1. Eight 10-week Sprague Dawley laboratory male rats (˜260 g each) were randomly selected into two groups (n=4), with group 1 for control and group 2 for B7-treatment. • 2. Day 0, injection of B7 drug. The intramuscular (IM) injection was vehicle for group 1, and 4 mg/kg B7 per rat for group 2, with 0.15 mL of volume per rat, to the left thigh region. The B7 was dissolved in vehicle containing 30% DMSO and 50% propylene glycol (PG), and 20% 20 mM Tris·HCl, pH 8.0. • 3. Days 1-7 observation of rats with daily body weight and temperature measurement and making records of any abnormal behavior. • 4. Day 7 necropsy: Euthanize the rats with CO2, immediately followed by blood sample collection from heart. Conduct postmortem rat gross-anatomic pathology analysis (brain, heart, lung, liver, kidney, spleen). • 5. Conduct clinical pathology analysis (CBC/Chemistry by IDDEX Bioanalytics) for the collected blood samples.

[2] = rat, IM 4 mg/kg, Day 7 blood, mean n=4

For `Cc1cc(F)ccc1S(=O)(=O)Nc1nc2ccccc2nc1Nc1cccc(S(=O)(=O)N2CCOCC2)c1` [Compound B7, 4-fluoro-2-methyl-N-[3-(3-morpholin-4-ylsulfonylanilino)quinoxalin-2-yl]benzenesulfonamide], the “inhibition of PPI between PRRSV GP4 glycoprotein and CD163-SRCR5 domain (BiFC)” value [1] was “also inhibited the PPI; also recorded: significantly inhibits the interaction”, the “Lipemia Index” value (Rat acute toxicity study; rat, IM 4 mg/kg, Day 7 blood) was “Normal” and the ALB/GLOB ratio (Rat acute toxicity study; [2]) was 1.2. The ALP (Rat acute toxicity study; [2]) was 277.5 U/L, the ALT (Rat acute toxicity study; [2]) was 95.5 U/L and the AST (Rat acute toxicity study; [2]) was 210.3 U/L and 210.25 U/L. For the same molecule, the Albumin (Rat acute toxicity study; [2]) was 3.5 g/dL, the BUN (Rat acute toxicity study; [2]) was 16.8 mg/dL and the “BUN/Creatinine Ratio” value (Rat acute toxicity study; [2]) was 76.7. For the same molecule, the “Basophil” value (Rat acute toxicity study; [2]) was 13.5 µL⁻¹, the “Basophils (%)” value (Rat acute toxicity study; [2]) was 0.3% and the “Bicarbonate TCO2” value (Rat acute toxicity study; [2]) was 32.8 mmol/L. The “Bilirubin - Conjugated” value (Rat acute toxicity study; [2]) was 0.0 mg/dL, the “Bilirubin - Unconjugated” value (Rat acute toxicity study; [2]) was 0.1 mg/dL and the Calcium (Rat acute toxicity study; [2]) was 11.8 mg/dL. It also gave a Chloride (Rat acute toxicity study; [2]) of 97.0 mmol/L, a Cholesterol (Rat acute toxicity study; [2]) of 76.0 mg/dL and a Creatine kinase (Rat acute toxicity study; [2]) of 585.5 U/L. The Creatinine (Rat acute toxicity study; [2]) was 0.2 mg/dL, the “Eosinophil” value (Rat acute toxicity study; [2]) was 19.0 µL⁻¹ and the “Eosinophils (%)” value (Rat acute toxicity study; [2]) was 0.5%. The Globulin (Rat acute toxicity study; [2]) was 2.9 g/dL, the Glucose (Rat acute toxicity study; [2]) was 175.5 mg/dL and the HCT (Rat acute toxicity study; [2]) was 50.1% and 50.075%. The HGB (Rat acute toxicity study; [2]) was 14.4 g/dL and 14.35 g/dL, the “Lymphocyte” value (Rat acute toxicity study; [2]) was 3188.0 µL⁻¹ and the “Lymphocytes (%)” value (Rat acute toxicity study; [2]) was 83.1% and 83.125%. For the same molecule, the MCH (Rat acute toxicity study; [2]) was 18.9 pg, the MCHC (Rat acute toxicity study; [2]) was 28.7 g/dL and the MCV (Rat acute toxicity study; [2]) was 65.8 fL. For the same molecule, the “Monocyte” value (Rat acute toxicity study; [2]) was 179.5 µL⁻¹, the “Monocytes (%)” value (Rat acute toxicity study; [2]) was 4.8% and the “NA/K Ratio” value (Rat acute toxicity study; [2]) was 22.3. The “Neutrophil” value (Rat acute toxicity study; [2]) was 425.0 µL⁻¹, the “Neutrophil (%)” value (Rat acute toxicity study; [2]) was 11.4% and 11.35% and the Phosphorus (Rat acute toxicity study; [2]) was 13.0 mg/dL. For the same molecule, the Potassium (Rat acute toxicity study; [2]) was 6.7 mmol/L, the RBC (Rat acute toxicity study; [2]) was 7.6 M/μL L and the Sodium (Rat acute toxicity study; [2]) was 145.8 mmol/L. For the same molecule, the “Total Bilirubin” value (Rat acute toxicity study; [2]) was 0.1 mg/dL, the “Total Protein” value (Rat acute toxicity study; [2]) was 6.4 g/dL and the WBC (Rat acute toxicity study; [2]) was 3.8 K/μL. The “blood cell counts, B7-treatment versus control” value (Rat acute toxicity study; single IM 4 mg/kg, Day 7) was “no obvious change for blood cell counts”, the “blood chemistry analysis, B7 versus control” value (Rat acute toxicity study; single IM 4 mg/kg, Day 7) was “only ALP and AST were changed slightly with statistical significances” and the “gross pathology, kidney” value (Rat acute toxicity study; single IM 4 mg/kg, Day 7 necropsy, T4 = B7 rat) was “cortical surface of kidney had multiple, mild tan discolorations”. The “gross pathology, liver” value (Rat acute toxicity study; single IM 4 mg/kg, Day 7 necropsy, T = B7 rats, C = control rats) was “multifocal to coalescing mild pale tan discoloration on the surface of liver of C2, T3 and T4”, the “daily weight gain and body temperature” value (Rat acute toxicity study; single IM 4 mg/kg, Days 1-7) was “normal daily weigh gain and body temperature” and the “signs of abnormality during the 7-day study” value (Rat acute toxicity study; single IM 4 mg/kg, n=4) was “No signs of abnormality were observed”.
